# Laboratory results as given in publication PMC10217883, “Structure of Leishmania donovani 6-Phosphogluconate Dehydrogenase and Inhibition by Phosphine Gold(I) Complexes: A Potential Approach to Leishmaniasis Treatment” (International Journal of Molecular Sciences, 2023).
# Read-outs that look alike come from different tables or passages of the source.
# Assays:
# [1] = target: Leishmania donovani 6-phosphogluconate dehydrogenase wild type (Leishmania donovani); assay: SEC; HiLoad 16/60 Superdex 200 in buffer A (500 mM NaCl, 50 mM Tris, pH 7.8); native, with 5 mM DTT, with 2 mM H2O2, with 0.2 mM 6PG, 0.2 mM NADP+ or 0.2 mM NADPH; varying protein concentrations; the dimer peak was the same under all conditions
# Ld6PGD [2] = target: T1, Ld6PGD (Leishmania donovani, UniProt Q18L02); assay: Dose-response of gold(I)-based compounds against recombinant Ld6PGD (NADPH fluorescence); type: biochemical
# Experimental: (§1) Dose–response curves of gold(I)-based compounds against Ld6PGD were determined in 96-well plates using a Tecan Infinite M200 plate reader (Tecan, Maennedorf, Switzerland). An amount of 10 mM of each compound was dissolved in 100% DMSO and afterwards diluted in assay buffer to the required concentrations (highest final compound concentration of 100 μM). The DMSO tolerance of the enzymes was determined in advance by incubating the enzymes with up to 6% DMSO and determining their activity. Up to this concentration, no impairment of the enzymes’ catalytic activity was observed. In addition, a DMSO control was included in each measurement.
# Different compound concentrations were added to one volume of enzyme mix (final concentrations: 50 mM Tris (pH 7.5), 0.005% Tween 20, 1 mg∙mL^−1 BSA, 0.7 nM Ld6PGD/0.7 nM Pf6PGD/0.9 nM Hs6PGD) and incubated for ten minutes. To start the reaction, one volume substrate mix (final concentrations: 50 mM Tris (pH 7.5), 0.005% Tween 20, 1 mg∙mL^−1 BSA, 3.3 mM MgCl2, 25/20/25 µM 6PG, 20 µM NADP^+ for Ld6PGD, Pf6PGD and Hs6PGD) was added to the wells. To increase the sensitivity of the assay, the increase of NADPH was monitored by measuring the fluorescence of NADPH at excitation 340 nm/emission 460 nm (ex340/em460). The substrate mix without 6PG served as a positive control (100% inhibition) and without the compound, but with DMSO as a negative control (100% activity). The assay contained both substrates either in saturation or at concentrations close to KM to facilitate the identification of competitive inhibitors. The reaction rate was calculated by dividing the relative fluorescence units (RFU) by time, and only a linear increase in absorbance/fluorescence was considered. IC50 values were calculated using GraphPad Prism 9.0 software and Microsoft Excel.
# Hs6PGD = target: T2, Hs6PGD (Homo sapiens, UniProt P52209); assay: Dose-response against recombinant Hs6PGD (NADPH fluorescence); type: biochemical; details: 25 µM 6PG, 20 µM NADP+, highest concentration 100 µM; read-out: IC50 for recombinant protein Hs6PGD
# T2 sequence (P52209 1-483): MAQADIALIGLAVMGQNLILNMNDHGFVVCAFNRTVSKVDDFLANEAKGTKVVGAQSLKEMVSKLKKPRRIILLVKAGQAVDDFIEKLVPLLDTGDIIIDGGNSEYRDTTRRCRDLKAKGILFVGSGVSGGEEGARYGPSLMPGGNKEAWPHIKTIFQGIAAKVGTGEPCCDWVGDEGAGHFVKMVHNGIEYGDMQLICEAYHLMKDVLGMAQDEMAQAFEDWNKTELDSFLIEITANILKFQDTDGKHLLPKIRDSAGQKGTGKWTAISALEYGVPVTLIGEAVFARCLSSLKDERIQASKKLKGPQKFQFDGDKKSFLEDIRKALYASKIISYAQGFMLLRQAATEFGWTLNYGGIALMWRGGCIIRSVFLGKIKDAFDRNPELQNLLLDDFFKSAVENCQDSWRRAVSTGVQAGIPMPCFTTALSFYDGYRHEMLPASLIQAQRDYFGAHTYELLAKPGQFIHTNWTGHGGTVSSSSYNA
# Experimental: as §1
# (§2) Different compound concentrations were added to one volume of enzyme mix (final concentrations: 50 mM Tris (pH 7.5), 0.005% Tween 20, 1 mg∙mL^−1 BSA, 0.7 nM Ld6PGD/0.7 nM Pf6PGD/0.9 nM Hs6PGD) and incubated for ten minutes. […] To increase the sensitivity of the assay, the increase of NADPH was monitored by measuring the fluorescence of NADPH at excitation 340 nm/emission 460 nm (ex340/em460). […] The reaction rate was calculated by dividing the relative fluorescence units (RFU) by time, and only a linear increase in absorbance/fluorescence was considered. IC50 values were calculated using GraphPad Prism 9.0 software and Microsoft Excel.
# Pf6PGD = Pf6PGD (Plasmodium falciparum, UniProt Q8IKT2); assay: Dose-response against recombinant Pf6PGD (NADPH fluorescence); type: biochemical
# Experimental: as §1, §2
# Ld6PGD [3] = target: T1, Ld6PGD; assay: Mode-of-inhibition study, substrate titration at constant auranofin concentrations (Michaelis-Menten); type: biochemical; details: for Vmax, NADP+ titrated: 6PG in saturation; for Vmax, 6PG titrated: NADP+ in saturation
# Experimental: For the mechanistic characterization of auranofin, either NADP^+ (0–200 µM) or 6PG (0–250 µM) was titrated at different constant compound concentrations around the IC50 (0–30 µM), while keeping the second substrate in saturation (6PG: 300 µM, NADP^+: 200 µM). To determine the compound mode of inhibition, the relationship between initial velocity (v0) and substrate concentrations ([S]) at various constant compound concentrations was analyzed by plotting the data as Michaelis–Menten curves using GraphPad Prism; KM values and Vmax were calculated with GraphPad Prism as well.
# Ld6PGD [4] = target: T1, Ld6PGD; assay: Reversibility of Ld6PGD inhibition (incubation at high concentration, then dilution); type: biochemical
# Experimental: In detail, 14 nM Ld6PGD was incubated with 30 µM auranofin for 10 min at room temperature. […] Afterwards, NADP^+ and 6PG were added to start the reaction, either at substrate saturation (300 µM 6PG, 200 µM NADP^+) or at concentrations close to KM (25 µM 6PG, 20 µM NADP^+). For comparison, controls containing either no inhibitor (100% activity) or inhibitor in the concentration remaining after dilution were prepared. NADPH production was monitored at ex340 nm using the Tecan Infinite M200 plate reader in 96-well plates. Specific activities were calculated from reaction rates. […] Inhibition was considered reversible if the activity of the sample was equal to the controls.
# [5] = target: TR from Leishmania infantum (LiTR); set-up: method as in PMID 21833767; details: read-out: Ki against recombinant TR from Leishmania infantum (LiTR); cited from earlier work
# Leishmania parasites = system: Leishmania parasites; set-up: method as in PMID 24328400, PMID 32463611, PMID 33139647; details: trypanosomatid parasites; cited from earlier work
compound,measurement,setting,value
Leishmania donovani 6-phosphogluconate dehydrogenase wild type (enzyme),stoichiometry N,[1],2
"[Cl][Au].c1ccc(P(c2ccccc2)c2ccccc2)cc1 [Ph3PAuCl, chloro(triphenylphosphine)gold(I)]",IC50,"Ld6PGD [2]; substrates close to KM (25 µM 6PG, 20 µM NADP+), 10 min incubation with enzyme, read-out: IC50 for recombinant protein Ld6PGD",2.1 ± 0.3 µM
CC[P](CC)(CC)=[Au][S][C@@H]1O[C@H](COC(C)=O)[C@@H](OC(C)=O)[C@H](OC(C)=O)[C@H]1OC(C)=O [Auranofin],IC50,Hs6PGD,> 100 µM
same,Ki,Ld6PGD [2],3.8 ± 0.4 µM
same,IC50,"Ld6PGD [2]; IC50 against Ld6PGD with 6PG at saturation, enzyme incubated with auranofin and 6PG at saturation",40.5 ± 1.9 µM
same,IC50,"Ld6PGD [2]; IC50 for recombinant protein Ld6PGD, substrates close to KM (25 µM 6PG, 20 µM NADP+), 10 min incubation with enzyme",8.6 ± 1 µM
same,IC50,Pf6PGD,20.1 ± 1.5 µM
CC(=O)OC[C@H]1O[C@@H]([S-])[C@H](OC(C)=O)[C@@H](OC(C)=O)[C@@H]1OC(C)=O.CCP(CC)CC.[Au+] [Auranofin],Inhibition of Ld6PGD at 50 µM,Ld6PGD [2]; 50 µM auranofin,completely inhibited
same,IC50 against Ld6PGD with NADP+ at saturation,"Ld6PGD [2]; enzyme incubated with auranofin and NADP+ at saturation, compared with IC50 at KM",unaffected
same,Mode of inhibition against 6PG,"Ld6PGD [3]; 6PG titrated, NADP+ 200 µM",mixed type of inhibition
same,Mode of inhibition against NADP+,"Ld6PGD [3]; NADP+ titrated, 6PG 300 µM",non-competitive inhibition
same,"Vmax, NADP+ titrated",Ld6PGD [3]; auranofin 1.875 µM,35.9 U/mg
same,"Vmax, 6PG titrated",Ld6PGD [3]; auranofin 1.875 µM,36.43 U/mg
same,"Vmax, NADP+ titrated",Ld6PGD [3]; auranofin 3.75 µM,34.45 U/mg
same,"Vmax, 6PG titrated",Ld6PGD [3]; auranofin 3.75 µM,35.23 U/mg
same,"Vmax, NADP+ titrated",Ld6PGD [3]; auranofin 7.5 µM,34.92 U/mg
same,"Vmax, 6PG titrated",Ld6PGD [3]; auranofin 7.5 µM,29.59 U/mg
same,"Vmax, NADP+ titrated",Ld6PGD [3]; auranofin 15 µM,31.07 U/mg
same,"Vmax, 6PG titrated",Ld6PGD [3]; auranofin 15 µM,21.59 U/mg
same,"Vmax, NADP+ titrated",Ld6PGD [3]; auranofin 30 µM,23.34 U/mg
same,"Vmax, 6PG titrated",Ld6PGD [3]; auranofin 30 µM,7.71 U/mg
same,Ld6PGD activity of undiluted sample,"Ld6PGD [4]; 30 µM auranofin (pre-dilution), substrates at KM",completely inhibited
same,Reversibility of Ld6PGD inhibition,"Ld6PGD [4]; 30 µM pre-dilution, diluted to 3 µM, 10 min each",irreversible
same,Ki,[5],0.155 ± 0.035 µM
same,Concentrations at which increase in ROS and apoptotic-like cell death were observed,Leishmania parasites,10 to 50 µM
